# Assay results: patent EP4768484A1, “HETEROCYCLIC FUSED RING COMPOUND, AND COMPOSITION AND USE THEREOF” (Shenzhen TargetRx, Inc., priority 2023, dated 2025)
# Tests used:
# Type in all cases: cell-based
# [1] = tested on: K562 cells; assay: Cell growth inhibitory activity assay (CellTiter-Glo), K562 cells; conditions: Homo sapiens, 72 h, CTG cell viability
# How it was run: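 K562 cells in logarithmic growth were counted, diluted and plated in 96-well plates, with medium-only blanks and a separate T0 plate read by CTG the following day. After overnight incubation, graded compound concentrations were added for 72 h, with 0.5% DMSO wells as growth controls. Luminescence was read on a Biotek cytation3.0, and IC50 came from nonlinear fitting in GraphPad Prism 7.0.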
# [2] = molecular target: T1, Ba/F3 BCR-ABL1 WT (Homo sapiens, UniProt P00519+P11274); assay: Cell growth inhibitory activity assay (CellTiter-Glo), Ba/F3 BCR-ABL1 WT cells; conditions: 72 h, CTG cell viability
# T1 construct: BCR (N-terminal fusion partner of the oncoprotein); expressed in transfected cells; host or cells: Ba/F3 (lentiviral transduction, monoclonal line)
# How it was run: (§1)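 Compound dilutions applied for 72 h (37 °C, 5% CO2) to overnight-plated Ba/F3 cells, parental or engineered to express WT/mutant BCR-ABL1. ATP-based CellTiter-Glo luminescence read, referenced to day-0 viability and 0.5% DMSO wells; IC50 fitted by four-parameter logistic curve.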
# [3] = molecular target: T2, Ba/F3 BCR-ABL1 T315I (Homo sapiens, UniProt P00519+P11274, T315I); assay: Cell growth inhibitory activity assay (CellTiter-Glo), Ba/F3 BCR-ABL1 T315I cells; conditions: 72 h, CTG cell viability
# T2 construct: BCR (N-terminal fusion partner of the oncoprotein); expressed in transfected cells; host or cells: Ba/F3 (lentiviral transduction, monoclonal line)
# How it was run: as §1
# [4] = molecular target: T3, Ba/F3 BCR-ABL1 T315M (Homo sapiens, UniProt P00519+P11274, T315M); assay: Cell growth inhibitory activity assay (CellTiter-Glo), Ba/F3 BCR-ABL1 T315M cells; conditions: 72 h, CTG cell viability
# T3 construct: BCR (N-terminal fusion partner of the oncoprotein); expressed in transfected cells; host or cells: Ba/F3 (lentiviral transduction, monoclonal line)
# Experimental: In this assay, the Celltiter-Glo (CTG) kit provided by Promega was used, and it is a homogeneous cell viability assay method. The cell viability of cultured cells was measured by quantifying ATP. K562 cells were purchased from Nanjing Kebai, product number CBP60529; Ba/F3 parental cells were purchased from RIKEN BRC, product number RCB0805; other cells containing BCR-ABL1 WT, BCR-ABL1 T315I, BCR-ABL1 T315M, BCR-ABL1 Y253H/E255K, BCR-ABL1 E255V/T3151, BCR-ABL1 A424T, BCR-ABL1 A337V, BCR-ABL1 P465S, BCR-ABL1 V468F, and BCR-ABL1 I502L were all monoclonal engineered cell lines obtained by transducting Ba/F3 parental cells with the lentivirus plasmids containing WT or corresponding mutated BCR-ABL1.
# The steps of cell viability assay are as follows: • a) Cells in logarithmic growth phase were collected. Cell suspension was prepared and the cells were counted. Concentration of the cells was calculated. • b) The cell suspension was diluted to the required concentration and then added to the middle wells of a 96-well plate, and PBS was added to the edge wells. The wells with no cells and only culture medium were used as blank controls. • c) In addition to the cell plate used for compound analysis, another 96-well plate was prepared as a T0 plate, and 3-6 blank wells and 3-6 cell wells were added. The next day, CTG was used to test the cell viability as the T0 viability value of the cells. • d) The cell plate was incubated at 37 °C in a 5% CO2 incubator overnight. • e) The next day, each concentration of a compound subjected to a gradient dilution was added, and the cell plate was incubated at 37 °C in a 5% CO2 incubator for 72 h. The wells with no compound and only 0.5% DMSO were used as positive controls for cell growth. • f) CTG reagent (CellTiter-Glo kit) was added according to the manufacturer's instructions to test the cell viability value. • g) The plate was read using Biotek cytation3.0 microplate reader and the data were exported. • h) IC50 was calculated using GraphPad Prism 7.0 software.
# The IC50 (half-maximal inhibitory concentration) of the compound was obtained using the following nonlinear fitting formula: Y = Bottom + (Top−Bottom)/(1+10^(∧)((LogIC50−X)*HillSlope)) [formula] • X: Log value of the compound concentration • Y: Inhibition rate (% inhibition) • Top: Maximum response • Bottom: Baseline response • HillSlope: Slope of the curve
# The formula for calculating cell inhibition rate (inhibition rate %) was: [formula]
# [5] = tested on: Ba/F3 parental cells; assay: Cell growth inhibitory activity assay (CellTiter-Glo), Ba/F3 parental cells; conditions: Mus musculus, BaF3, 72 h, CTG cell viability, read-out: IC50 Ba/F3 BCR-ABL1 Parental
# How it was run: as §1
IC50 [1] [µM],Structure (SMILES),IC50 [2] [µM],IC50 [3] [µM],IC50 [4] [µM],IC50 [5] [µM]
0.05 to 1,"CC(=O)N[C@H]1CCC2c3cc(C(=O)Nc4ccc(OC(F)(F)Cl)cc4)cc(-c4cnccn4)c3N(C(C)C)C21 (stereo partly drawn) [T-12-A, (3S)-3-acetamido-N-(4-(chlorodifluoromethoxy)phenyl)-4-isopropyl-5-(pyrazin-2-yl)-1,2,3,3a,4,8b-hexahydrocyclopenta[b]indole-7-carboxamide]",0.05 to 1,> 1,> 1,> 1
≤ 0.005,"CC(=O)N[C@@H]1CCC2c3cc(C(=O)Nc4ccc(OC(F)(F)Cl)cc4)cc(-c4cnccn4)c3N(C(C)C)C21 (stereo partly drawn) [T-12-B, (3R)-3-acetamido-N-(4-(chlorodifluoromethoxy)phenyl)-4-isopropyl-5-(pyrazin-2-yl)-1,2,3,3a,4,8b-hexahvdrocyclopentalblindole-7-carboxamide]",≤ 0.005,0.005 to 0.05,0.05 to 1,> 1
≤ 0.005,"C[C@@H]1CC[S+]([O-])c2nc3cc(C(=O)Nc4ccc(OC(F)(F)Cl)cc4)cc(-c4cnc5c(c4)C(=O)N(C)C5)c3n21 (stereo partly drawn) [T-27, (4R)-N-(4-(chlorodifluoromethoxy)phenyl)-4-methyl-6-(6-methyl-5-oxo-6,7-dihydro-5H-pyrrolo[3,4-b]pyridin-3-yl)-3,4-dihydro-2H-benzo[4,5]imidazo[2,1-b][1,3]thiazine-8-carboxamide 1-oxide]",0.005 to 0.05,0.05 to 1,> 1,> 1
≤ 0.005,"C[C@@H]1CCS(=O)(=O)c2nc3cc(C(=O)Nc4ccc(OC(F)(F)Cl)cc4)cc(-c4cnc5c(c4)C(=O)N(C)C5)c3n21 [T-28, (R)-N-(4-(chlorodifluoromethoxy)phenyl)-4-methyl-6-(6-methyl-5-oxo-6,7-dihydro-5H-pyrrolo[3,4-b]pyridin-3-yl)-3,4-dihydro-2H-benzo[4,5]imidazo[2,1-b][1,3]thiazine-8-carboxamide 1,1-dioxide]",0.005 to 0.05,0.005 to 0.05,0.05 to 1,> 1
≤ 0.005,"C[C@@H]1COCc2nc3cc(C(=O)Nc4ccc(OC(F)(F)Cl)cc4)cc(-c4cnc5c(c4)C(=O)NC5)c3n21 [T-30, (R)-N-(4-(chlorodifluoromethoxy)phenyl)-4-methyl-6-(5-oxo-6,7-dihydro-5H-pyrrolo[3,4-b]pyridin-3-yl)-3,4-dihydro-1H-benzo[4,5]imidazo[2,1-c][1,4]oxazine-8-carboxamide]",≤ 0.005,0.05 to 1,0.005 to 0.05,> 1
≤ 0.005,"C[C@@H]1CCC(O)c2nc3cc(C(=O)Nc4ccc(OC(F)(F)Cl)cc4)cc(-c4cnc5c(c4)C(=O)N(C4CC4)C5)c3n21 (stereo partly drawn) [T-32, (1R)-N-(4-(chlorodifluoromethoxy)phenyl)-9-(6-cyclopropyl-5-oxo-6,7-dihydro-5H-pyrrolo[3,4-b]pyridin-3-yl)-4-hydroxy-1-methyl-1,2,3,4-tetrahydrobenzo[4,5]imidazo[1,2-a]pyridine-7-carboxamide]",≤ 0.005,0.05 to 1,0.05 to 1,> 1
≤ 0.005,"C[C@@H]1CCC(O)c2nc3cc(C(=O)Nc4ccc(OC(F)(F)Cl)cc4)cc(-c4cnc5c(c4)C(=O)NC5)c3n21 (stereo partly drawn) [T-33, (1R)-N-(4-(chlorodifluoromethoxy)phenyl)-4-hydroxy-1-methyl-9-(5-oxo-6,7-dihydro-5H-pyrrolo[3,4-b]pyridin-3-yl)-1,2,3,4-tetrahydrobenzo[4,5]imidazo[1,2-a]pyridine-7-carboxamide]",0.005 to 0.05,0.05 to 1,0.05 to 1,> 1
≤ 0.005,C[C@@H]1CCC(F)c2nc3cc(C(=O)Nc4ccc(OC(F)(F)Cl)cc4)cc(-c4cnc5c(c4)C(=O)N(C4CC4)C5)c3n21 (stereo partly shown) [T-35],≤ 0.005,0.005 to 0.05,0.005 to 0.05,> 1
0.05 to 1,"C[C@@H]1CN(C)CCc2nc3cc(C(=O)Nc4ccc(OC(F)(F)Cl)cc4)cc(-c4cnc5c(c4)C(=O)N(C4CC4)C5)c3n21 [T-37, (R)-N-(4-(chlorodifluoromethoxy)phenyl)-10-(6-cyclopropyl-5-oxo-6,7-dihydro-5H-pyrrolo[3,4-b]pyridin-3-yl)-1,3-dimethyl-2,3,4,5-tetrahydro-1H-benzo[4,5]imidazo[1,2-d][1,4]diazepine-8-carboxamide]",> 1,> 1,> 1,> 1
≤ 0.005,"C[C@@H]1CCOCc2nc3cc(C(=O)Nc4ccc(OC(F)(F)Cl)cc4)cc(-c4cnc5c(c4)C(=O)N(C)C5)c3n21 [T-39, (R)-N-(4-(chlorodifluoromethoxy)phenyl)-5-methyl-7-(6-methyl-5-oxo-6,7-dihydro-5H-pyrrolo[3,4-b]pyridin-3-yl)-4,5-dihydro-1H,3H-benzo[4,5]imidazo[2,1-c][1,4]oxazepine-9-carboxamide]",≤ 0.005,0.05 to 1,> 1,> 1
≤ 0.005,"CC(=O)n1cc2c(n1)-c1cc(-c3cc(C(=O)Nc4ccc(OC(F)(F)Cl)cc4)cc4nc5n(c34)[C@H](C)COC5)cnc1C2 [T-43, (R)-6-(2-acetyl-2,4-dihydropyrazolo[3',4':3,4]cyclopenta[1,2-b]pyridin-7-yl)-N-(4-(chlorodifluoromethoxy)phenyl)-4-methyl-3,4-dihydro-1H-benzo[4,5]imidazo[2,1-c][1,4]oxazine-8-carboxamide]",≤ 0.005,≤ 0.005,0.05 to 1,> 1
≤ 0.005,"Cc1ccnc(-n2cc3c(n2)-c2cc(-c4cc(C(=O)Nc5ccc(OC(F)(F)Cl)cc5)cc5nc6n(c45)[C@H](C)COC6)cnc2C3)n1 [T-73, (R)-N-(4-(chlorodifluoromethoxy)phenyl)-4-methyl-6-(2-(4-methylpyrimidin-2-yl)-2,4-dihydropyrazolo[3',4':3,4]cyclopenta[1,2-b]pyridin-7-yl)-3,4-dihydro-1H-benzo[4,5]imidazo[2,1-c][1,4]oxazine-8-carboxamide]",≤ 0.005,≤ 0.005,≤ 0.005,> 1
≤ 0.005,"C[C@@H]1CC[S+]([O-])c2nc3cc(C(=O)Nc4ccc(OC(F)(F)Cl)cc4)cc(-c4cnccn4)c3n21 (stereo partly drawn) [T-117, (4R)-N-(4-(chlorodifluoromethoxy)phenyl)-4-methyl-6-(pyrazin-2-yl)-3,4-dihydro-2H-benzo[4,5]imidazo[2,1-b][1,3]thiazine-8-carboxamide 1-oxide]",≤ 0.005,0.005 to 0.05,> 1,> 1
≤ 0.005,"C[C@@H]1CCS(=O)(=O)c2nc3cc(C(=O)Nc4ccc(OC(F)(F)Cl)cc4)cc(-c4cnccn4)c3n21 [T-118, (R)-N-(4-(chlorodifluoromethoxy)phenyl)-4-methyl-6-(pyrazin-2-yl)-3,4-dihydro-2H-benzo[4,5]imidazo[2,1-b][1,3]thiazine-8-carboxamide 1,1-dioxide]",≤ 0.005,0.005 to 0.05,0.05 to 1,> 1
